Molecules are shown by their SMILES. Records with an inconclusive call do not appear. The source made the active and inactive calls. How the calls were made is not given here.

A short description of assay [1]: blockers of dynein-driven microtubule transport – imaging, high-content imaging, dose response (AID 463136).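 Further: mouse mammary adenocarcinoma 3617.4 cells expressing GFP-tagged rat glucocorticoid receptor.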 To be noted: HCS imaging, dynein-mediated cargo transport inhibition; inhibition at max concentration; at 50 µM; stronger effect = higher value.
For assay [2], the system named is HCS imaging, dynein-mediated cargo transport inhibition. The assay is described as above.

The term inhibition denotes the relative decrease from the control value, in per cent. For orientation: IC50 means the concentration that gives 50% inhibition. With `CN(C(=O)CCl)C1CCCc2ccccc21` (centres undefined), the inhibition in assay [1] was 70.4%. Besides, the IC50 in assay [2] was 6.32 µM.
For `COC(=O)c1cc(=O)n(Cc2ccco2)c(=Nc2ccc(F)c(Cl)c2)s1`, in assay [1], the inhibition is 31.4%. The IC50 in assay [2] is > 50 µM (inactive).
Consider `CN(Cc1ccc(Cl)s1)C(=O)CCl`, for which the inhibition in assay [1] turned out to be 75.8%. Also, the IC50 in assay [2] was 8.74 µM.
In the same order, the values of `COC(=O)c1cc(NC(=O)c2cccc(Cl)c2)c(=O)oc1/C=C/Nc1cc(C)cc(C)c1` are 76.3% and 2.54 µM.
For `Cc1cccc(Cn2ncc(Cl)c(Cl)c2=O)c1` the same measures were 84.7% and 13 µM.
In the same order, the values of `Cc1ccc2nc(/C(C#N)=C\c3ccc(N4CCOCC4)o3)[nH]c2c1` are 80.2% and 13.1 µM.
For the compound `C=C1C(=O)[C@@]23[C@H](O)C[C@@H]4C(C)(C)CC[C@H](O)[C@]4(C)[C@@H]2C[C@H](O)[C@@H]1[C@H]3O`, the inhibition in assay [1] was 54.9%. Besides, the IC50 in assay [2] is 9.84 µM.
In the same order, the values of `CCOC(=O)C1=C(SCC)c2cc3c(n2C1=O)CCCC3` are 37.7% and > 50 µM (inactive).
In the same order, the values of `O=c1c(Cl)c(Cl)cnn1Cc1nnc(-c2ccc(Cl)cc2)o1` are 69.6% and 22.9 µM.
In the same order, the values of `COc1cc(/C=C(/C(=O)c2cccs2)c2nc3ccccc3[nH]2)cc(OC)c1O` are 61.2% and 13.8 µM.
With `O=C(NC1CCCCC1)C(c1cccnc1)N(C(=O)CCl)c1cccc(Cl)c1` (centres undefined), the inhibition in assay [1] is 52.2%. The IC50 in assay [2] is 7.48 µM.
For `Cc1nc([N+](=O)[O-])c(Br)n1CC(=O)c1ccc(Cl)cc1` the same measures were 88.1% and 13.1 µM.
In the same order, the values of `COc1ccc(-c2nnc(Sc3nc4ccccc4o3)c3ccccc23)cc1` are 88.8% and 27.2 µM.
In the same order, the values of `CC1CCc2cc(F)ccc2N1C(=O)CCl` (centres undefined) are 77.7% and 10.5 µM.
For the compound `CC(C)(C)c1cnnn1-c1ccc(C(=O)CCl)cc1`, in assay [1], the inhibition was 67.1%. Further, the IC50 in assay [2] was 6.44 µM.
In the same order, the values of `O=C(/C=C/c1ccccn1)c1cc(Br)ccc1O` are 69.4% and 28.3 µM.
Regarding `C#CC(=O)N(c1cccc(OC)c1)C(C(=O)NC1CCCC1)c1cccs1` (centres undefined), the inhibition in assay [1] came to 16.5%. Further, the IC50 in assay [2] was > 50 µM (inactive).
As to `CCOC(=O)c1c(-n2c(C)cc(C=C3C(=O)NC(=S)NC3=O)c2C)sc2c1CCCC2`, the inhibition in assay [1] came out at 78.1%. The half-maximal inhibitory concentration (IC50) in assay [2] is 5.75 µM.
On to `COC(=O)c1cc(NC(=O)c2ccccc2)c(=O)oc1/C=C/Nc1ccc(Oc2ccccc2)cc1`, for which the inhibition in assay [1] was 102%. Moreover, the IC50 in assay [2] was 1.16 µM.
In the same order, the values of `C=CCN1C(=O)NC(=O)/C(=C/C=C/c2ccccc2)C1=O` are -33.3% and > 50 µM (inactive).
In the same order, the values of `Cc1ccc(NC(=O)C(=Cc2ccc(C(=O)O)cc2)C(=O)Nc2ccc(C)cc2C)c(C)c1` are 78% and 11.1 µM.
In the same order, the values of `Cc1cc(-n2c(C)cc(C(=O)CCl)c2C)no1` are 67.7% and 9.45 µM.
Turning to `CCN1C/C(=C/c2ccc(N3CCOCC3)cc2)C(=O)/C(=C/c2ccc(N3CCOCC3)cc2)C1`, the inhibition in assay [1] is 108%. Also, the IC50 in assay [2] is 25 µM.
For `C=CCSc1nc2ccccc2n1C(=O)/C=C/c1cc(OC)c(OC)c(OC)c1` the same measures were 25.5% and > 50 µM (inactive).
In the same order, the values of `CCOC(=O)C(C(=O)OCC)C(C(=O)OCC)N1CCOCC1` (centres undefined) are 89.2% and 14 µM.
As to `Cc1cc(C)nc(S/C=C/C(=O)c2ccccc2F)n1`, the inhibition in assay [1] is 83.3%. Besides, in assay [2], the IC50 was 19.3 µM.
With `O=C(NCc1cccnc1)/C(=C/c1ccc(-c2cccc(Cl)c2)o1)S(=O)(=O)c1ccccc1`, the inhibition in assay [1] amounted to 42%. Further, in assay [2], the IC50 was > 50 µM (inactive).
For `CCCNC(=O)Cn1c(=O)/c(=C\c2ccc(-c3ccc([N+](=O)[O-])cc3)o2)s/c1=C\C(=O)C(C)(C)C` the same measures were 95.2% and 32.2 µM.
For `O=C1c2ccccc2-c2onc3ccc(NCc4ccco4)c1c23`, the inhibition in assay [1] is 87.2%. Besides, the IC50 in assay [2] was 41.4 µM.
In the same order, the values of `CC(C)c1ccc(CN2CCN(C(=O)CCl)CC2)cc1` are 89.6% and 7.94 µM.
In the same order, the values of `Cc1ccc(-n2ncc(Br)c(Br)c2=O)cc1` are 70.1% and 13.8 µM.
For `O=C1C=CC(=O)N1CCNc1ncc(C(F)(F)F)cc1Cl` the same measures were 21.2% and > 50 µM (inactive).
Consider `O=[N+]([O-])c1ccc(/C=C/C2=NN(c3ccccc3)C(c3ccco3)C2)o1` (centres undefined), for which the inhibition in assay [1] turned out to be 37.1%. The IC50 in assay [2] is > 50 µM (inactive).
For `Cc1ccc(N2C(=O)NC(=O)/C(=C\C=C\c3ccco3)C2=O)cc1` the same measures were 108% and 27.7 µM.
In the same order, the values of `CCN1/C(=C/C=C/c2oc3ccc4ccccc4c3[n+]2CC)Oc2ccc3ccccc3c21` are 96.7% and 2.51 µM.
For the compound `Clc1ncnc2scc(-c3ccc(Br)cc3)c12`, in assay [1], the inhibition turned out to be 85.1%. Moreover, in assay [2], the IC50 was 19.9 µM.
Take `O=C1C=CC(O)(c2cc(=O)c3c(O)cc(O)cc3o2)C=C1`: in assay [1], the inhibition stood at 86.7%. In assay [2], the 50% inhibitory concentration (IC50) was 5.9 µM.
Consider `O=C(Cn1ncc(Cl)c(Cl)c1=O)N1CCN(Cc2ccccc2)CC1`, for which the inhibition in assay [1] amounted to 62.9%. Besides, the IC50 in assay [2] was 5.63 µM.
In the same order, the values of `CCOC(=O)c1cn(-c2c(Cl)cccc2Cl)c2cc(Cl)c([N+](=O)[O-])cc2c1=O` are 82.8% and 29 µM.
In the same order, the values of `CCn1c(SCC(=O)N2CCOCC2)nc2oc3c(Cl)cc(Cl)cc3c(=O)c2c1=O` are 78.9% and 33 µM.
In the same order, the values of `COc1ccc(N=C2S/C(=C\c3ccc(N4CCOCC4)o3)C(=O)N2CCc2c[nH]c3ccccc23)cc1` are 127% and 27.1 µM.
Take `Cc1nn(C)c(C(=O)Sc2cccc(Cl)c2)c1[N+](=O)[O-]`: in assay [1], the inhibition was 10.5%. In assay [2], the IC50 is > 50 µM (inactive).
In the same order, the values of `COc1ccc(-c2cc(C(F)(F)F)nc(S(=O)(=O)CCCC(=O)Nc3cc(C)on3)n2)cc1OC` are 67.2% and 42.9 µM.
Regarding `CC(=O)OCCCNc1cc(Sc2ccc(Cl)cc2)c2nonc2c1[N+](=O)[O-]`, the inhibition in assay [1] was 60.4%. Also, the IC50 in assay [2] was 41 µM.
In the same order, the values of `CC(=O)Nc1sc(/C(C#N)=C\c2cccc(Cl)c2)nc1-c1ccc(C)cc1` are 109% and 8.22 µM.
In the same order, the values of `CC(=O)OCCNc1cc(SCc2ccco2)c2nonc2c1[N+](=O)[O-]` are 59.9% and 42.1 µM.
For `Cc1[nH]c2ccccc2c1/C=N/Nc1ccc([N+](=O)[O-])cc1S(=O)(=O)Nc1ccc(Cl)cc1` the same measures were 112% and 22.8 µM.
For `CCN(CC)c1ccc(/C=C/[N+](=O)[O-])cc1`, the inhibition in assay [1] worked out at 0.227%. Besides, the IC50 in assay [2] was > 50 µM (inactive).
Turning to `COc1ccc(OC)c(N2C(=O)NC(=O)/C(=C\c3ccc([N+](=O)[O-])s3)C2=O)c1`, the inhibition in assay [1] came out at 86.7%. For the same compound, the concentration for half-maximal inhibition (IC50) in assay [2] is 11.9 µM.
For `O=C(/C=C/c1ccccc1Cl)c1cccnc1` the same measures were 85.3% and 17.2 µM.
In the same order, the values of `Cc1ccc(N2C(=O)NC(=O)/C(=C/C=C/c3ccco3)C2=O)cc1` are 114% and 24.8 µM.
On to `O=C(/C=C/c1cccnc1)/C=C/c1cccnc1`, for which the inhibition in assay [1] worked out at 88.7%. In addition, the concentration for half-maximal inhibition (IC50) in assay [2] was 3.09 µM.
Turning to `CCOc1ccc(CN(C)C(=O)CCl)cc1`, in assay [1], the inhibition stood at 85.8%. For the same compound, the IC50 in assay [2] is 10.2 µM.
In the same order, the values of `Cc1ccc(-n2nnnc2Sc2ccc(S(=O)(=O)NCCN(C)C)cc2[N+](=O)[O-])cc1` are 86.3% and 11.9 µM.
For `O=C(NC1CCCC1)C(c1ccc(Cl)cc1)N(Cc1ccc(F)cc1)C(=O)CCl` (centres undefined) the same measures were 75.1% and 34.8 µM.
For `O=C(c1ccccc1)c1cc(Cl)ccc1N1C(=O)C=CC1=O` the same measures were 12% and > 50 µM (inactive).
For `Cc1cc(C)cc(N2C(=O)NC(=O)/C(=C\C=C\c3ccco3)C2=O)c1`, the inhibition in assay [1] was 88%. For the same compound, the IC50 in assay [2] was 32.3 µM.
In the same order, the values of `O=[N+]([O-])c1ccc(-c2ccc(/C=N/Nc3nc(N4CCCCC4)nc(N4CCCCC4)n3)o2)cc1` are 22.5% and > 50 µM (inactive).
For `CS(=O)(=O)c1cc([N+](=O)[O-])c(Sc2nc3ccccc3[nH]2)c([N+](=O)[O-])c1` the same measures were 22.9% and > 50 µM (inactive).
Turning to `C=C1C(=O)O[C@H]2C[C@@H](C)[C@@H]3C=CC(=O)[C@@]3(C)C[C@H]12`, in assay [1], the inhibition is 89.6%. Further, in assay [2], the IC50 is 8.71 µM.
In the same order, the values of `Cc1nc([N+](=O)[O-])c(Br)n1CC(=O)c1ccc(Br)cc1` are 82% and 14.7 µM.
Consider `COC/C=C/C1=CC2=CC(=O)C(C)(OC(=O)c3cnc4ccccc4n3)C(=O)C2=CN1Cc1ccc(OC)cc1` (centres undefined), for which, in assay [1], the inhibition was 89.5%. For the same compound, in assay [2], the IC50 was 15 µM.
In the same order, the values of `O=C1C=CC2C(c3ccc4c(c3)OCO4)CC1N2Cc1ccccc1` (centres undefined) are 13% and > 50 µM (inactive).
In the same order, the values of `N#C/C(=C\c1cccc([N+](=O)[O-])c1)C(=O)NCc1ccc(Cl)cc1` are 13.8% and > 50 µM (inactive).
In the case of `O=C(CCl)N(Cc1cccc([N+](=O)[O-])c1)c1cccc(Cl)c1`, in assay [1], the inhibition was 75%. Besides, the IC50 in assay [2] was 12.2 µM.
In the same order, the values of `COc1ccc(C(=O)/C=C/C(=O)N(CC(=O)NCCC(C)C)Cc2cccs2)c(O)c1` are 45.7% and > 50 µM (inactive).
For `Cn1c(=O)c([N+](=O)[O-])c(Cl)c2ccccc21`, in assay [1], the inhibition turned out to be 84%. Moreover, the IC50 in assay [2] was 39.4 µM.

(Values after PubChem BioAssay AID463136 (University of Pittsburgh Molecular Library Screening Center, 2010).)
